Assay results from patent US20260184708A1, “PYRIDAZINONES AND METHODS OF USE THEREOF” (GFB (ABC), LLC, priority 2017, published 2026).

Each compound was assayed against T1, TRPC5 (Homo sapiens, UniProt Q9UL62) (assay: TRPC5 Fluorescence Assay - FLIPR format (HEK-TREx hTRPC5, Riluzole stimulation)). Settings: Table 7, read-out: TRPC5-FLIPR IC50.
T1 construct: expressed in transfected cells; host or cells: HEK 293
T1 sequence (Q9UL62 1-973): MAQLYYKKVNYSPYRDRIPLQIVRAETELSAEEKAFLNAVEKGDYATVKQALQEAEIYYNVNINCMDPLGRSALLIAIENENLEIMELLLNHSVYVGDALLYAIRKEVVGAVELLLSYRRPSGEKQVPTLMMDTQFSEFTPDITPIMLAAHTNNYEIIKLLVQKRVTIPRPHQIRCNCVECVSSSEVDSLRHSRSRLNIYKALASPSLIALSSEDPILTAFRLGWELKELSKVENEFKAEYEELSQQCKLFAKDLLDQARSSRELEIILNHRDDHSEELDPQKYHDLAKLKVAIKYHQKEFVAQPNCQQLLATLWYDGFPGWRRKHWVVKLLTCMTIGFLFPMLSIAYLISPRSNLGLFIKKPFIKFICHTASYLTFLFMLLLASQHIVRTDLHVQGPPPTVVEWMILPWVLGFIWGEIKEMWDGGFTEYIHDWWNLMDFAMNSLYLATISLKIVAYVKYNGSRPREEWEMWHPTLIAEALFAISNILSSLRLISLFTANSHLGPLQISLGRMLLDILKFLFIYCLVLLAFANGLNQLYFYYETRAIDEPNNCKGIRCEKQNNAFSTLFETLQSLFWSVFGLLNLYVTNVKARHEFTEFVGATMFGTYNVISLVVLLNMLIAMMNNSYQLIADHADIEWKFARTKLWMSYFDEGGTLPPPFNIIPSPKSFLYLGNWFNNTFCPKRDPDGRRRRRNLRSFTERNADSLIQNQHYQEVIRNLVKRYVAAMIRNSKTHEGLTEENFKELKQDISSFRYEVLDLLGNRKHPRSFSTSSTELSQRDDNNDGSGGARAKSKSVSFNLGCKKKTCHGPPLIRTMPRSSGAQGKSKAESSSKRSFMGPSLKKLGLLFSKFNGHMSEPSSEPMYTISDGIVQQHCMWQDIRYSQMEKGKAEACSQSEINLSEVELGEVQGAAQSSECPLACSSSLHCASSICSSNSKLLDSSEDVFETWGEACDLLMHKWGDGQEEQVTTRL
Assay type: cell-based
Procedure: • Cell line: ICLN-001633 • Base Cell: HEK • Channel: TRPC5 • Species: Human • Thaw ID: multiple • Passage: multiple
FLIPR Assay Buffer (Earls Balanced Salt Solution (EBSS) was prepared as follows:
(§1) Test Agent Preparation: Compounds were made up to, or supplied as, a 10 mM stock solution generally using DMSO as the vehicle. 10-point dose response curves were generated using the Echo-550 acoustic dispenser. Compound source plates were made by serially diluting compound stocks to create 10 mM, 1 mM, and 0.1 mM solutions in DMSO into Echo certified LDV plates. The Echo then serially spotted 100% DMSO stock solutions into source dose response plates to generate a 4-fold dilution scheme. 100% DMSO was added to the spotted dose response plates to bring the final volume to 5 μl. […] of the dose response stock plate was then spotted into pre-incubation and stimulation assay plates. 50 μl of pre-incubation buffer and 100 μl of stimulation buffer was then added to the plates resulting in a final assay test concentration range of 30 μM to 0.0001 μM with a final DMSO concentration of 0.3%.
Experimental Methods: Cells expressing TRPC5 (HEK-TREx hTRPC5) are plated onto 384 well, black PDL-coated microplates and maintained in TRPC5 growth media the day prior to use for experiments. TRPC5 expression is induced by the application of […] tetracycline at the time of plating. Media is removed from the plates and 10 μl of 4 μM of Fluo-4 AM (mixed with equal volume of Pluronic F-127) in EBSS is added to the cells. Cells are incubated at room temperature, protected from light, for 60-90 minutes. After the incubation period, the dye is removed and replaced with 10 μl of EBSS. Cell, pre-incubation and stimulation plates are loaded onto the FLIPR-II and the assay is initiated. The FLIPR measures a 10 second baseline and then adds 10 μl of 2× compounds (or controls). Changes in fluorescence are monitored for an additional 5 minutes. After the 5 minute pre-incubation, 20 μl of 2× Riluzole (with 1× compound or controls) is added to the cell plate. The final Riluzole stimulation concentration in the assay is 30 μM. After the Riluzole addition, changes in fluorescence are monitored for an additional 5 minutes.
(§2) Test Agent Effect: Test agent modulation of TRPC5 calcium response was determined as follows. After the Riluzole, fluorescence was monitored for a 5 minute period. The maximum relative fluorescene response (minus the control response of 1 μM of the control inhibitor) was captured and exported from the FLIPR. Test agent effect was calculated as % inhibition using the following formula: % inhibition=((RFU Test Agent−Plate Average RFU REF INHIB)/(Plate Average RFU Control−Plate Average RFU REF INHIB))×100

CN(C)C(=O)c1nn(Cc2ccccc2C(F)F)c2c1CN(c1cn[nH]c(=O)c1Cl)CC2 and O=c1[nH]ncc(N2CCc3c(ncn3Cc3cccnc3CC(F)F)C2)c1Cl [drawing 929] fall in the same range of IC50: 0.01 to 1000 nM for the first, 0.01 to 1000 nM for the second.

O=c1[nH]ncc(N2CCc3c(ncnc3Oc3ccccc3C(F)(F)F)C2)c1Cl gave an IC50 of 0.01 to 1000 nM.

Same assay, conditions: Table 9, read-out: hTRPCS-FLIPR IC50

NC(=O)C1(Cc2ccccc2C(F)(F)F)CCN(c2cn[nH]c(=O)c2Cl)CC1 and O=c1[nH]ncc(N2CCN(Cc3ccccc3C(F)(F)F)CC2)c1Cl [drawing 1036] fall in the same range of IC50: 1000 to 5000 nM for the first, 1000 to 5000 nM for the second.

C[C@@H]1CN([C@@H](C)c2ccc(F)cc2C(F)(F)F)C(=O)CN1c1cn[nH]c(=O)c1Cl and C[C@H](O)c1ncccc1CN1CCN(c2cn[nH]c(=O)c2Cl)CC1 fall in the same range of IC50: 0.01 to 1000 nM for the first, 0.01 to 1000 nM for the second.

Same assay, conditions: Table 10, read-out: TRPCS-FLIPR IC50

O=c1[nH]ncc(C2=Cc3nnn(Cc4ccccc4C(F)(F)F)c3CC2)c1Cl and Nc1nn(Cc2ccccc2C(F)(F)F)c2c1CN(c1cn[nH]c(=O)c1Cl)CC2 fall in the same range of IC50: 1000 to 5000 nM for the first, 1000 to 5000 nM for the second.

C[C@H](c1cccnc1CC(F)F)n1nnc2c1CCN(c1cn[nH]c(=O)c1Cl)C2 and O=c1[nH]ncc(N2CCc3c(ncn3Cc3cccnc3CC(F)F)C2)c1Cl [drawing 1058] fall in the same range of IC50: 0.01 to 1000 nM for the first, 0.01 to 1000 nM for the second.

C[C@@H](c1ccc(Cl)cc1C(F)(F)F)n1nnc2c1CCN(c1cn[nH]c(=O)c1Cl)C2 and C[C@H](c1cc(F)ccc1C(F)(F)F)n1nnc2c1CCN(c1cn[nH]c(=O)c1Cl)C2 fall in the same range of IC50: 0.01 to 1000 nM for the first, 0.01 to 1000 nM for the second.

First: COC[C@@H](c1ccc(F)cc1C(F)(F)F)n1cnc2c1CCN(c1cn[nH]c(=O)c1Cl)C2
Second: C[C@H](c1ccc(F)cc1C(F)(F)F)n1[nH]c(=O)c2c1CCN(c1cn[nH]c(=O)c1Cl)C2
The IC50 of the first is higher: 1000 to 5000 nM for the first, 0.01 to 1000 nM for the second. The second is the more potent here.

CN1CCN(Cc2nn(Cc3ccccc3C(F)F)c3c2CN(c2cn[nH]c(=O)c2Cl)CC3)C(=O)C1 [drawing 1111] and COc1nn(Cc2ccccc2C(F)F)c2c1CN(c1cn[nH]c(=O)c1Cl)CC2 [drawing 1056] fall in the same range of IC50: 0.01 to 1000 nM for the first, 0.01 to 1000 nM for the second.

Nc1nn(Cc2ccc(F)cc2C(F)(F)F)c2c1CN(c1cn[nH]c(=O)c1Cl)CC2 and CS(=O)(=O)c1nn(Cc2ccc(F)cc2C(F)(F)F)c2c1CN(c1cn[nH]c(=O)c1Cl)CC2 fall in the same range of IC50: 0.01 to 1000 nM for the first, 0.01 to 1000 nM for the second.

C[C@H](c1ccc(F)cc1C(F)(F)F)c1n[nH]c2c1CCN(c1cn[nH]c(=O)c1Cl)C2 and C[C@@H](c1ccccc1C(F)(F)F)n1[nH]c(=O)c2c1CCN(c1cn[nH]c(=O)c1Cl)C2 fall in the same range of IC50: 0.01 to 1000 nM for the first, 0.01 to 1000 nM for the second.

Cn1c(=O)c2c(n1Cc1ccccc1C(F)F)CCN(c1cn[nH]c(=O)c1Cl)C2 and CNC(=O)c1nn([C@@H](C)c2ccccc2C(F)F)c2c1CN(c1cn[nH]c(=O)c1Cl)CC2 fall in the same range of IC50: 0.01 to 1000 nM for the first, 0.01 to 1000 nM for the second.

First: CCS(=O)(=O)c1nn(Cc2ccc(F)cc2C(F)F)c2c1CN(c1cn[nH]c(=O)c1Cl)CC2
Second: CC(=O)Nc1nn(Cc2ccccc2C(F)(F)F)c2c1CN(c1cn[nH]c(=O)c1Cl)CC2
The IC50 of the first is higher: 1000 to 5000 nM for the first, 0.01 to 1000 nM for the second. The second is the more potent here.

C[C@H]1CCC[C@H]1Cn1nnc2c1CCN(c1cn[nH]c(=O)c1Cl)C2 and O=c1[nH]ncc(N2CCc3c(cnn3Cc3cccnc3[C@@H](O)C(F)(F)F)C2)c1Cl fall in the same range of IC50: 0.01 to 1000 nM for the first, 0.01 to 1000 nM for the second.

Each compound was assayed against T2, TRPC4 (Homo sapiens, UniProt Q9UBN4) (assay: TRPC4 FLIPR Assay (HEK-TREx hTRPC4, Englerin A stimulation)). Settings: Table 8; HEK-TREx hTRPC4; read-out: TRPC4 FLIPR IC50.
T2 construct: expressed in transfected cells; host or cells: HEK-TREx (HekTrex-293), cell line ICLN-1694, tetracycline-induced
T2 sequence (Q9UBN4 1-982 isoform Q9UBN4-5): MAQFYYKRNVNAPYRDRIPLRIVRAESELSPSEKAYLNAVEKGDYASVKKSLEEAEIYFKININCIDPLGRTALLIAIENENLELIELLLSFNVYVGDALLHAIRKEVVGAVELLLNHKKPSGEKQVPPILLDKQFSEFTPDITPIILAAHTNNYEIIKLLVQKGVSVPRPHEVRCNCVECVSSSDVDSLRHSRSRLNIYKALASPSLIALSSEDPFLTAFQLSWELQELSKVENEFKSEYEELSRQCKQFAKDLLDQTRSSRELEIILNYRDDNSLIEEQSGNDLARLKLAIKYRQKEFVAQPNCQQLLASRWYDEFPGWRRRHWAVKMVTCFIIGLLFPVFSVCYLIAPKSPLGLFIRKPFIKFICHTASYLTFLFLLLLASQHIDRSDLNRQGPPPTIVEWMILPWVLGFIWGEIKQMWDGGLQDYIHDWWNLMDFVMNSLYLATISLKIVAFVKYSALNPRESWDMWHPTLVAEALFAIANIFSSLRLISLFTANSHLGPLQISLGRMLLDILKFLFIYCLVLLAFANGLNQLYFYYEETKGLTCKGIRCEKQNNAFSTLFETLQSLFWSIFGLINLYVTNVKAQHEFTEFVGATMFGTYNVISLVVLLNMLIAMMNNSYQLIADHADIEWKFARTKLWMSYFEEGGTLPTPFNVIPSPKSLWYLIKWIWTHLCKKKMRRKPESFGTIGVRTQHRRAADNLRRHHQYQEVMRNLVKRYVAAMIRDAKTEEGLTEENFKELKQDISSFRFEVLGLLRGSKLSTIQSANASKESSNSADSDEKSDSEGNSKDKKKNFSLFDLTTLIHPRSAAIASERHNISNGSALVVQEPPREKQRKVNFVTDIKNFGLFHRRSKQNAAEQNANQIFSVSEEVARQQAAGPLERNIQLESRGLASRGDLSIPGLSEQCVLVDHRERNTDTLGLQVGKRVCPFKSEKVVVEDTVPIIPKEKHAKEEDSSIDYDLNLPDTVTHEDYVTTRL
Assay type: cell-based
Procedure: FLIPR Assay Buffer (Earls Balanced Salt Solution (EBSS)) was prepared as follows:
as §1, with “10-point” for “Test Agent Preparation: Compounds were made up to, or supplied as, a 10 mM stock solution generally using DMSO as the vehicle. 10-point”, “[…]” for “50 μl”
Experimental Methods: Cells expressing TRPC4 were plated onto 384 well, black pdl-coated microplates and maintained in TRPC4 growth media the day prior to use for experiments. TRPC4 expression was induced by the application of 1 μg/ml tetracycline at the time of plating. […] Cells were incubated at room temperature, protected from light, for 60-90 minutes. After the incubation period, the dye was removed and replaced with 10 μl of EBSS. Cell, pre-incubation and stimulation plates were loaded onto the FLIPR-II and the assay was initiated. The FLIPR measured a 10 second baseline and then added 10 μl of 2× compounds (or controls). Changes in fluorescence were monitored for an additional 5 minutes. After a 5 minute pre-incubation, 20 μl of 2× Englerin A (with 1× compound or controls) was added to the cell plate. The final Engerlin A stimulation concentration in the assay is 100 nM. After the Englerin A addition, changes in fluorescence were monitored for an additional 5 minutes.
as §2, with “TRPC4” for “TRPC5”, “Englerin A,” for “Riluzole,”, “fluorescence” for “fluorescene”, “[…]” for “1 μM”, “TEST AGENT−Plate” for “Test Agent−Plate”, “CONTROL−Plate” for “Control−Plate”

O=C1CN(c2cn[nH]c(=O)c2Cl)CCN1Cc1ccc(F)cc1F [drawing 1014] and COc1cc(F)ccc1CN1CCN(c2cn[nH]c(=O)c2Cl)CC1=O [drawing 1021] fall in the same range of IC50: 1000 to 5000 nM for the first, 1000 to 5000 nM for the second.

CCc1ncccc1CN1CCN(c2cn[nH]c(=O)c2Cl)CC1 and Cc1ccccc1Cn1cnc2c1CCN(c1cn[nH]c(=O)c1Cl)C2 [drawing 938] fall in the same range of IC50: 0.01 to 1000 nM for the first, 0.01 to 1000 nM for the second.

Work on Cc1ccccc1CN1CCN(c2cn[nH]c(=O)c2Br)CC1=O yielded an IC50 of 0.01 to 1000 nM.
